These are literature values, as cited in patent US20040138296A1, “Amyloid immunization and Cox-2 inhibitors for the treatment of alzheimer's disease” (Pharmacia Corporation, priority 2002, published 2004).

Series [1] deals with neurons. The following applies: Abeta (25-35) and Abeta (1-40).
Series [2] deals with AD patients. The following applies: for other adverse effects: metrifonate in Phase III trials.
The test system of series [3] is glia reaction, iNOS production. Particulars: once a day, seven days following the injection.
Series [4] deals with mild or moderately impaired Alzheimer's disease patients. The following applies: 100-150 mg, 6 months.
Series [5] deals with NG108-15 cells. The following applies: by inhibition of APP mRNA level.
For series [6], the system named is microglial and astrocytic activation. Particulars: adult rats, Abeta (1-42) into nucleus basalis.
Series [7] deals with AD patients. The following applies: over 300 AD patients.

For `CCN1CC/C(=C\c2cc(C(C)(C)C)c(O)c(C(C)(C)C)c2)S1(=O)=O` [Compound S-2474], in series [1], the “Abeta induced cell death of neurons” value is given as “significantly prevented”.
As to `COc1cc2c(cc1OC)C(=O)C(CC1CCN(Cc3ccccc3)CC1)C2` (centres unmarked) [Donepezil], the AD-associated deterioration entry in series [2] (controlled trials, mild to moderately severe AD patients) is “can delay AD-associated deterioration”. Moreover, in series [2] (patients), the gastrointestinal side effects entry is recorded as “relatively low incidence of gastrointestinal side effects”.
With `CCN(C)C(=O)Oc1cccc([C@H](C)N(C)C)c1` [Rivastigmine], the duration of action in series [2] (human, in vivo) is 10 h. Besides, in series [2] (patients), the gastrointestinal side effects entry was “some gastrointestinal side effects” and the other adverse effects result is on record as “weight loss”.
For the compound `Nc1c2c(nc3ccccc13)CCCC2` [Tacrine], the half-life result in series [2] (cholinesterase inhibitor in AD use) is recorded as “short half-life”. Besides, the hepatotoxicity entry in series [2] (patients) is “hepatotoxic effects in a number of patients”.
As for `CC(C)Cc1ccc(C(C)C(=O)O)cc1` (centres unmarked) [ibuprofen], in series [3], the astrocytic reaction result is given as “no effect on astrocytic reaction”, the microglia reaction entry is “attenuated microglia reaction” and the “number of iNOS-positive cells” value is given as “reduced the number of iNOS-positive cells”.
`COc1ccc2c(c1)c(CC(=O)O)c(C)n2C(=O)c1ccc(Cl)cc1` [indomethacin]: the “cognitive decline versus placebo” value in series [4] was “appeared to protect the patients”. The “production of amyloid β-peptide and a secreted form of APP” value in series [5] is recorded as “suppressed production”.
Turning to `COP(=O)(OC)C(O)C(Cl)(Cl)Cl` (centres unmarked) [metrifonate], the other adverse effects result in series [2] (patients) is “leg cramps and muscle cramps”.
Consider `CS(=O)(=O)Nc1ccc([N+](=O)[O-])cc1Oc1ccccc1` [nimesulide, N-(4-Nitro-2-phenoxy-phenyl)-methanesulfonamide], for which, in series [3], the astrocytic reaction result is on record as “no effect on astrocytic reaction”, the microglia reaction result is listed as “attenuated microglia reaction” and the “number of iNOS-positive cells” value is “reduced the number of iNOS-positive cells”.
Consider `CS(=O)(=O)c1ccc(C2=C(c3ccccc3)C(=O)OC2)cc1` [rofecoxib], for which, in series [6], the “microglial and astrocytic activation” value was “attenuated microglial and astrocytic activation”.
On to `C#CCN(C)[C@H](C)Cc1ccccc1` [selegeline, Selegiline], for which the “progression of the disease” value in series [7] is “slow the progression of the disease”.
Turning to `Cc1c(C)c2c(c(C)c1O)CC[C@@](C)(CCC[C@H](C)CCC[C@H](C)CCCC(C)C)O2` [vitamin E, alpha-tocopherol], in series [7], the “progression of the disease” value is “slow the progression of the disease”.
